Measurements taken from PMC2360547 (British Journal of Cancer, 2006).
Values joined by “and” are separate entries in the source; they are usually repeats but may differ in a detail not shown here. Equal values may be shown once. “Also recorded” adds a separate entry of the source. Read-outs that look alike come from different tables or passages of the source.

What was measured:
[1] = tested on: metastatic melanoma; test: Phase IIA clinical trial: tumour response, survival, performance status; type: in vivo, human; design: key to Best response: PD: progressive disease; SD: stable disease (<25% increase overall diameter of any lesion; no new lesions, after at least 4 weeks); NA: not assessable
Description: There was no limit on the amount of prior therapy, but no prior chemotherapy or immunotherapy was permitted in the 4 weeks before study entry. Patients with CNS metastases were eligible. At least the first 14 patients entered were also required to have at least two lesions suitable for excision biopsy (skin, subcutaneous metastases). Written informed consent was obtained from all patients and the protocol was approved by the Human Research Ethics Committees of the participating institutions.
This fixed dose schedule was calculated from the Phase I study, in which higher single daily doses were associated with more GIT toxicity.
Patients were reviewed for safety and efficacy of midostaurin weekly for the first month, and then on a monthly basis, or more frequently where symptoms warranted. Disease sites were re-evaluated by clinical examination monthly or CT every 2 months, or more frequently if disease progression was suspected.
It was planned to recruit 14 patients with disease suitable for biopsy as the first cohort. […] If at least one response occurred, a further 13 patients (not necessarily with disease suited for biopsy) would be recruited. Response and toxicity were assessed using WHO criteria.

[2] = tested on: PKC
Method: Tumour biopsies were immediately frozen in liquid nitrogen and stored at −70°C until analysis. Heparinised blood (10 ml) was collected predose and at day 28.
Tumours were powdered in liquid nitrogen and homogenised on ice using an Ultra-Turrax in a buffer containing 20 mM HEPES, pH 7.4, 2 mM EDTA, 25 mM β-glycerophosphate, 0.2 mM DTT, 10 μg ml^−1 leupeptin, 10 μg ml^−1 aprotinin, 1 μg ml^−1 pepstatin, 1 μM sodium orthovanadate and 0.5 mM PMSF. Extracts were then sonicated in an ice cold sonicating bath for 5 min before centrifugation at 1000 g for 5 min to remove cellular debris. Supernatants were centrifuged at 50 000 g for 15 min to separate cytosolic (supernatant) and particulate (pellet) fractions. The supernatant was kept as ‘cytosolic’ fraction. The pellet was further extracted by resuspension in the original lysis buffer including 1% NP-40. Following sonication for 5 min on ice, the extract was centrifuged at 50 000 g for 15 min. The supernatant from this spin (which derived from the original pellet) was kept as the ‘particulate’ fraction. All steps were performed at 4°C or on ice.
The protein concentrations of the cytosolic and particulate fractions were measured after TCA precipitation using the Dc protein assay kit (Bio-Rad).
Intratumoral total PKC activity was measured in cytosolic and particulate fractions using protamine sulphate as the substrate, following the method of a validated assay ([Budworth and Gescher, 1995]). The PKC assay was performed with 4–5 μl of the cytosol or particulate extract (2–50 μg protein) in a total reaction volume of 200 μl, including 200 μg ml^−1 protamine sulphate, 150 μM (γ-^32P)ATP (200 c.p.m. pmol^−1) in a buffer containing 20 mM Tris-HCl, pH 7.4, 10 mM magnesium acetate and 0.5 mM EGTA. The reaction was terminated after 6–7 min (30°C) by spotting 35 μl of the mix onto P81 phosphocellulose paper, followed by washing in 75 mM phosphoric acid. Bound, phosphorylated protamine sulphate was quantitated by scintillation counting of the phosphocellulose papers. Protein kinase C activity was determined by phosphate incorporation into protamine sulphate and expressed as picomolar of phosphate transferred min mg^−1 protein. Measurements were performed in triplicate. Each patient's pretreatment and day 28 biopsies were processed together and analysed in the same assay run. Up to six patients’ samples could be analysed in one day to minimise interassay variability.

[3] = tested on: multidrug resistant cells (R100; CCRF CEM cells resistant to 100 ng ml−1 vinblastine); conditions: for Percent of potential maximum reversal of multidrug resistance: plasma from patients receiving midostaurin 75 mg t.i.d.
Method: This was determined using a previously reported method that assessed the capacity of cremophor EL to inhibit MDR^10. Briefly, the ability of the patient's plasma to modulate ex vivo intracellular daunorubicin accumulation in multidrug resistant cells (R100; CCRF CEM cells resistant to 100 ng ml^−1 vinblastine) was measured using fluorescence detection. The activity of 20 μg ml^−1 Valspodar (PSC833, an inhibitor of P-glycoprotein) added to the patient's prestudy plasma sample defined 100% reversal ([…] of daunorubicin). […] The modulating ability of day 29 plasma samples was determined relative to this. All assays were performed in triplicate. Blank plasma was spiked with 1.0 μl ml^−1 cremophor EL and run as an inter-assay control.

[4] = Tumour tissue concentrations by HPLC with fluorescence detection; type: in vivo, human; conditions: for Kp at 28 day / concentration at 28 day: human, oral, 10 subjects; for Kp at 28 day: tumour tissue / plasma, 75 mg three times a day, tumour tissue to plasma; for concentration at 28 day: 75 mg tid
Method: Therefore, the tumour tissue was frozen and cut into as small as possible pieces with a scalpel. The pieces were weighed, added to 1 ml of water, vortexed and thereafter treated like plasma. The assay for plasma samples was validated with acceptable calibration curves, within-study variability and total recovery. […] Due to limited availability of tumour tissue, the within-study validation for tumour assay was not performed.

[5] = tested on: PKCα; design: method as in Fabbro et al, 2000; conditions: ref Fabbro et al, 2000; cited from earlier work
[6] = design: method as in Novartis internal report; conditions: ref Novartis internal report; cited from earlier work
[7] = design: method as in Propper et al, 2001; conditions: Phase I trial, oral; ref Propper et al, 2001; cited from earlier work
[8] = tested on: patients with advanced cancer; conditions: ref Propper et al, 2001, cited from earlier work
[9] = one patient resistant to midostaurin with abundance of PKCξ
[10] = 20 μg ml−1 added to pretreatment plasma, 100% = 20 μg ml−1 Valspodar

SMILES: CO[C@@H]1[C@H](N(C)C(=O)c2ccccc2)C[C@H]2O[C@]1(C)n1c3ccccc3c3c4c(c5c6ccccc6n2c5c31)C(=O)NC4 [Midostaurin, N-benzoyl-staurosporine]
- Median survival ([1]; 17 patients, 75 mg p.o. t.i.d.): 43 days
- Survival, range ([1]; 17 patients, 75 mg p.o. t.i.d.): 8 to 113 days
- Tumour response ([1]; 17 patients, midostaurin 75 mg p.o. t.i.d.): No tumour responses were seen; also recorded: No patient obtained a tumour response
- Patients with no change of ECOG performance status ([1]; eight patients, on study): 47%
- Patients with progressive disease ([1]; fourteen out of 17 patients, 75 mg p.o. t.i.d.): 82%
- Duration of stable disease (best response duration) ([1]; individual patients with stable disease, midostaurin 75 mg p.o. t.i.d.): 50 days and 85 days
- Best response ([1]; individual patients, midostaurin 75 mg p.o. t.i.d., WHO criteria): PD and SD (2×)
- Patients with worsening of ECOG performance status ([1]; nine patients, on study): 53%
- Patients with stable disease ([1]; two out of 17 patients, 75 mg p.o. t.i.d.): 12%
- Effect on phosphorylation of protamine sulphate ([2]; 10 μM added to melanoma biopsies from nontrial patients): inhibited phosphorylation
- Reduction of cytosolic PKC activity compared to pretreatment biopsy ([2]; day 28 tumour biopsy, in seven out of nine patients): 7–91%
- Change of cytosolic PKC activity [2, 9]: unchanged
- Increase in particulate PKC activity [2, 9]: 65%
- Percentage of total PKC activity present in the particulate fraction ([2]; patient 10, day 28 (day 0: 19.1%)): 15.4%
- Percentage of total PKC activity present in the particulate fraction ([2]; patient 11, day 28 (day 0: 15.7%)): 11.1%
- Percent of potential maximal reversal of multidrug resistance, mean [3, 10]: 40%
- Percent of potential maximal reversal of multidrug resistance, range [3, 10]: 14–64%
- Percent of potential maximum reversal of multidrug resistance ([3]; 10 out of 12 patients): < 10%
- Percent of potential maximum reversal of multidrug resistance ([3]; all 12 patients): < 20%
- Kp at 28 day ([4]; read-out: Tissue/plasma ratios, maximum): 1.86
- Kp at 28 day ([4]; read-out: Tissue/plasma ratios, mean): 0.56
- Kp at 28 day ([4]; read-out: Tissue/plasma ratios, median): 0.29
- Kp at 28 day ([4]; read-out: Tissue/plasma ratios, minimum): 0.02
- concentration at 28 day ([4]; tumour tissue, tumour tissue, about 1 month of 75 mg tid, read-out: Tissue concentrations, maximum): 4250 nM
- concentration at 28 day ([4]; tumour tissue, tumour tissue, about 1 month of 75 mg tid, read-out: Tissue concentrations, mean): 1300 nM
- concentration at 28 day ([4]; tumour tissue, tumour tissue, about 1 month of 75 mg tid, read-out: Tissue concentrations, median): 593 nM
- concentration at 28 day ([4]; tumour tissue, tumour tissue, about 1 month of 75 mg tid, read-out: Tissue concentrations, minimum): 58 nM
- Tissue concentrations ([4]; tumour tissue, individual subjects, about 1 month of 75 mg tid): 58 nM and 607 nM and 266 nM and 579 nM and 4142 nM and 550 nM and 1528 nM and 358 nM and 698 nM and 4246 nM
- IC50 [5]: 22 nM
- Plasma protein binding [6]: 99%
- Elimination t1/2, range [7]: 22 to 96 h
- Estimated median elimination t1/2 [7]: 38.4 h
- Response in two patients with cholangiocarcinoma ([8]; for 4 months on midostaurin): one had stable disease and one a partial response
- MTD ([8]; oral, 12.5–300 mg day−1): not reached
- Patients with nausea/vomiting ([8]; oral, 225–300 mg day−1 (grade 3 in 3)): 15 out of 16
- Patients with grade 2 diarrhoea ([8]; oral, 225–300 mg day−1): six out of 16
